Columns and labels:
Assay type in all cases: in vivo
[1] = tested on: sicklepod (Cassia obtusifolia, CASOB); assay: Post-emerge greenhouse herbicide test, phytotoxicity rating; settings: Senna obtusifolia, post-emergence, 336 h, 14 days after application, scale 0-100; for pest or weed control at 63 g/ha: rate 63 g ai/ha; for pest or weed control at 500 g/ha: rate 500 g ai/ha
Procedure, shortened: (§1)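 Scores use a 0 (no damage) to 100 (complete kill) scale, taken 14 days after a foliar spray. Acetone solutions with 0.25% v/v non-ionic surfactant were applied by track sprayer at 187 l/ha and 63-1000 g ai/ha to bottom-watered 2-3 leaf plants.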

[2] = tested on: large crabgrass (Digitaria sanguinalis, DIGSA); assay: as above; settings: Digitaria sanguinalis, post-emergence, 336 h, 14 days after application, scale 0-100; for pest or weed control at 63 g/ha: rate 63 g ai/ha; for pest or weed control at 500 g/ha: rate 500 g ai/ha
Procedure, shortened: as §1

[3] = tested on: barnyardgrass (Echinochloa crusgalli, ECHCG); assay: as above; settings: Echinochloa crus-galli, post-emergence, 336 h, 14 days after application, scale 0-100; for pest or weed control at 63 g/ha: rate 63 g ai/ha; for pest or weed control at 500 g/ha: rate 500 g ai/ha
Procedure, shortened: as §1

[4] = tested on: green foxtail (Setaria viridis, SETVI); assay: as above; settings: Setaria viridis, post-emergence, 336 h, 14 days after application, scale 0-100; for pest or weed control at 63 g/ha: rate 63 g ai/ha; for pest or weed control at 500 g/ha: rate 500 g ai/ha
Procedure, shortened: as §1

[5] = tested on: Johnsongrass (Sorghum halepense, SORHA); assay: as above; settings: Sorghum halepense, post-emergence, 336 h, 14 days after application, scale 0-100; for pest or weed control at 63 g/ha: rate 63 g ai/ha; for pest or weed control at 500 g/ha: rate 500 g ai/ha
Procedure, shortened: as §1

[6] = tested on: redroot pigweed (Amaranthus retroflexus, AMARE); assay: as above; settings: Amaranthus retroflexus, post-emergence, 336 h, 14 days after application, scale 0-100; for pest or weed control at 63 g/ha: rate 63 g ai/ha; for pest or weed control at 500 g/ha: rate 500 g ai/ha
Procedure, shortened: as §1

[7] = tested on: velvetleaf (Abutilon theophrasti, ABUTH); assay: as above; settings: Abutilon theophrasti, post-emergence, 336 h, 14 days after application, scale 0-100; for pest or weed control at 63 g/ha: rate 63 g ai/ha; for pest or weed control at 500 g/ha: rate 500 g ai/ha
Procedure, shortened: as §1

[8] = tested on: lambsquarters (Chenopodium album, CHEAL); assay: as above; settings: Chenopodium album, post-emergence, 336 h, 14 days after application, scale 0-100; for pest or weed control at 63 g/ha: rate 63 g ai/ha; for pest or weed control at 500 g/ha: rate 500 g ai/ha
Procedure, shortened: as §1

[9] = tested on: ivyleaf morningglory (Ipomoea hederacea, IPOHE); assay: as above; settings: Ipomoea, post-emergence, 336 h, 14 days after application, scale 0-100; for pest or weed control at 63 g/ha: rate 63 g ai/ha; for pest or weed control at 500 g/ha: rate 500 g ai/ha
Procedure, shortened: as §1

[10] = tested on: green foxtail (Setaria viridis, SETVI); assay: Pre-emerge greenhouse herbicide test, phytotoxicity rating; settings: Setaria viridis, pre-emergence, 336 h, 14 days after application, rating scale 0-100; for pest or weed control at 125 g/ha: Rate 125 g al/ha; for pest or weed control at 500 g/ha: Rate 500 g al/ha
Procedure, shortened: (§2)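 Visual 0–100 injury rating (100 = all plants dead) taken 14 days after treatment. Rates of 125–1000 g ai/ha in acetone, 187 l/ha, were sprayed onto soil one day post-sowing; pots were surface-watered to incorporate, then bottom-watered.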

[11] = tested on: Johnsongrass (Sorghum halepense, SORHA); assay: as above; settings: Sorghum halepense, pre-emergence, 336 h, 14 days after application, rating scale 0-100; for pest or weed control at 125 g/ha: Rate 125 g al/ha; for pest or weed control at 500 g/ha: Rate 500 g al/ha
Procedure, shortened: as §2

[12] = tested on: redroot pigweed (Amaranthus retroflexus, AMARE); assay: as above; settings: Amaranthus retroflexus, pre-emergence, 336 h, 14 days after application, rating scale 0-100; for pest or weed control at 125 g/ha: Rate 125 g al/ha; for pest or weed control at 500 g/ha: Rate 500 g al/ha
Procedure, shortened: as §2

[13] = tested on: velvetleaf (Abutilon theophrasti, ABUTH); assay: as above; settings: Abutilon theophrasti, pre-emergence, 336 h, 14 days after application, rating scale 0-100; for pest or weed control at 125 g/ha: Rate 125 g al/ha; for pest or weed control at 500 g/ha: Rate 500 g al/ha
Procedure, shortened: as §2

[14] = tested on: lambsquarters (Chenopodium album, CHEAL); assay: as above; settings: Chenopodium album, pre-emergence, 336 h, 14 days after application, rating scale 0-100; for pest or weed control at 125 g/ha: Rate 125 g al/ha; for pest or weed control at 500 g/ha: Rate 500 g al/ha
Procedure, shortened: as §2

[15] = tested on: ivyleaf morningglory (Ipomoea hederacea, IPOHE); assay: as above; settings: Ipomoea, pre-emergence, 336 h, 14 days after application, rating scale 0-100; for pest or weed control at 125 g/ha: Rate 125 g al/ha; for pest or weed control at 500 g/ha: Rate 500 g al/ha
Procedure, shortened: as §2

Compound	pest or weed control at 63 g/ha [1] [%]	pest or weed control at 500 g/ha [1] [%]	pest or weed control at 63 g/ha [2] [%]	pest or weed control at 500 g/ha [2] [%]	pest or weed control at 63 g/ha [3] [%]	pest or weed control at 500 g/ha [3] [%]	pest or weed control at 63 g/ha [4] [%]	pest or weed control at 500 g/ha [4] [%]	pest or weed control at 63 g/ha [5] [%]	pest or weed control at 500 g/ha [5] [%]	pest or weed control at 63 g/ha [6] [%]	pest or weed control at 500 g/ha [6] [%]	pest or weed control at 63 g/ha [7] [%]	pest or weed control at 500 g/ha [7] [%]	pest or weed control at 63 g/ha [8] [%]	pest or weed control at 500 g/ha [8] [%]	pest or weed control at 63 g/ha [9] [%]	pest or weed control at 500 g/ha [9] [%]	pest or weed control at 125 g/ha [10] [%]	pest or weed control at 500 g/ha [10] [%]	other results
Nn1c(C(F)(F)F)cc(=O)n(-c2cc(Oc3ncccn3)c(Cl)cc2F)c1=O [Compound 9-16, 1-Amino-3-[4-chloro-2-fluoro-5-(2-pyrimidyloxy)phenyl]-6-trifluoromethyl-1,2,3,4-tetrahydropyrimidine-2,4-dione]	100	100	100	100	100	100	100	100	100	100	100	100	100	100	100	100	100	100	100	100	pest or weed control at 125 g/ha [11]: 100%; pest or weed control at 500 g/ha [11]: 100%; pest or weed control at 125 g/ha [12]: 100%; pest or weed control at 500 g/ha [12]: 100%; pest or weed control at 125 g/ha [13]: 100%; pest or weed control at 500 g/ha [13]: 100%; pest or weed control at 125 g/ha [14]: 100%; pest or weed control at 500 g/ha [14]: 100%; pest or weed control at 125 g/ha [15]: 100%; pest or weed control at 500 g/ha [15]: 100%
Nn1c(C(F)(F)F)cc(=O)n(-c2cc(Oc3nccc(Cl)n3)c(Cl)cc2F)c1=O [Compound 9-17, 1-Amino-3-[4-chloro-2-fluoro-5-(4-chloro-2-pyrimidyloxy)phenyl]-6-trifluoromethyl-1,2,3,4-tetrahydropyrimidine-2,4-dione]	0	0	10	10	0	60	10	10	0	80	95	95	100	100	80	90	100	95	90	100	pest or weed control at 125 g/ha [11]: 30%; pest or weed control at 500 g/ha [11]: 90%; pest or weed control at 125 g/ha [12]: 100%; pest or weed control at 500 g/ha [12]: 100%; pest or weed control at 125 g/ha [13]: 100%; pest or weed control at 500 g/ha [13]: 100%; pest or weed control at 125 g/ha [14]: 100%; pest or weed control at 500 g/ha [14]: 100%; pest or weed control at 125 g/ha [15]: 20%; pest or weed control at 500 g/ha [15]: 100%
Nn1c(C(F)(F)F)cc(=O)n(-c2cc(Oc3ccccc3[N+](=O)[O-])c(Cl)cc2F)c1=O [Compound 9-21, 1-amino-3-[4-chloro-2-fluoro-5-(2-nitrophenoxy)phenyl]-6-trifluoromethyl-1,2,3,4-tetrahydropyrimidine-2,4-dione]	100	100	30	90	70	100	90	100	60	90	100	100	100	100	100	100	100	100	100	100	pest or weed control at 125 g/ha [11]: 90%; pest or weed control at 500 g/ha [11]: 100%; pest or weed control at 125 g/ha [12]: 100%; pest or weed control at 500 g/ha [12]: 100%; pest or weed control at 125 g/ha [13]: 100%; pest or weed control at 500 g/ha [13]: 100%; pest or weed control at 125 g/ha [14]: 100%; pest or weed control at 500 g/ha [14]: 100%; pest or weed control at 125 g/ha [15]: 60%; pest or weed control at 500 g/ha [15]: 100%

Source: patent US6479435B1, “Diaryl ethers and processes for their preparation and herbicidal and desiccant compositions containing them” (ISK Americas Incorporated, priority 1997, dated 2002)
